Earlier results as cited in patent US9549940B2, “Sustained-release formulations of topiramate” (Supernus Pharmaceuticals, Inc., priority 2006, dated 2017).

Legend:
[1] = oral administration of an immediate release dosage form
[2] = room temperature

- time of plasma drug concentration peak [1]: approximately 2 hours
- solubility of topiramate in water [2]: about 9.8 mg/ml
SMILES: CC1(C)OC2[C@@H](CO[C@@]3(COS(N)(=O)=O)OC(C)(C)O[C@@H]23)O1 (stereo partly drawn) [topiramate, 2,3:4,5-Di-O-isopropylidene-beta-D-fructopyranose sulfamate]
